Molecular target: xanthine oxidase (Homo sapiens, UniProt P47989)
Test: Xanthine oxidase (XOD) inhibition, uric acid production read at OD290 nm
Format: biochemical
Details: read-out: Inhibition rate (%)
Protocol: Xanthine oxidase catalyzes a xanthine substrate to produce uric acid and superoxide anion, and uric acid has a characteristic absorption peak under 290 nm UV conditions. By measuring the change curve of absorbance value within a certain time, the slope of this curve is the production rate of the uric acid, to measure the change of the activity of xanthine oxidase, so as to judge the uric acid lowering ability of the sample.
92.4 μL of xanthine oxidase mother solution (5 U/770 μL) is drawn in a centrifuge tube, and diluted with 11.9076 mL of PBS to obtain 0.05 U/mL xanthine oxidase working solution which shall be prepared for immediate use.
0.02284 g of xanthine is weighed in a beaker; 1.2 mL of 1 mol/L NaOH solution is added; ultrasonic treatment is conducted for 20 min; and the volume is fixed to 100 mL with the PBS to obtain 1.5 mmol/L xanthine working solution.
Eucommia ulmoides Oliv. leaf extract solutions: 0.50 g of corresponding Eucommia ulmoides Oliv. leaf extract sample in embodiment 5 is weighed; the volume is fixed to 50 mL with the PBS; the solution is thoroughly mixed well to prepare 10.0 mg/mL mother solution; and the mother solution is diluted with the PBS to different multiples to obtain different concentrations of Eucommia ulmoides Oliv. solutions.
2.1 A proper quantity of centrifugal tubes are taken and numbered as OD1, OD2, OD3 and OD4 respectively. Reagents are added to each tube according to the combinations of Table 1.
The concentrations are plotted in horizontal coordinates and the inhibition rates are plotted in vertical coordinates to calculate the concentration IC50 with half inhibition rate.

xanthine oxidase, sequence (P47989 whole entry, species assumed): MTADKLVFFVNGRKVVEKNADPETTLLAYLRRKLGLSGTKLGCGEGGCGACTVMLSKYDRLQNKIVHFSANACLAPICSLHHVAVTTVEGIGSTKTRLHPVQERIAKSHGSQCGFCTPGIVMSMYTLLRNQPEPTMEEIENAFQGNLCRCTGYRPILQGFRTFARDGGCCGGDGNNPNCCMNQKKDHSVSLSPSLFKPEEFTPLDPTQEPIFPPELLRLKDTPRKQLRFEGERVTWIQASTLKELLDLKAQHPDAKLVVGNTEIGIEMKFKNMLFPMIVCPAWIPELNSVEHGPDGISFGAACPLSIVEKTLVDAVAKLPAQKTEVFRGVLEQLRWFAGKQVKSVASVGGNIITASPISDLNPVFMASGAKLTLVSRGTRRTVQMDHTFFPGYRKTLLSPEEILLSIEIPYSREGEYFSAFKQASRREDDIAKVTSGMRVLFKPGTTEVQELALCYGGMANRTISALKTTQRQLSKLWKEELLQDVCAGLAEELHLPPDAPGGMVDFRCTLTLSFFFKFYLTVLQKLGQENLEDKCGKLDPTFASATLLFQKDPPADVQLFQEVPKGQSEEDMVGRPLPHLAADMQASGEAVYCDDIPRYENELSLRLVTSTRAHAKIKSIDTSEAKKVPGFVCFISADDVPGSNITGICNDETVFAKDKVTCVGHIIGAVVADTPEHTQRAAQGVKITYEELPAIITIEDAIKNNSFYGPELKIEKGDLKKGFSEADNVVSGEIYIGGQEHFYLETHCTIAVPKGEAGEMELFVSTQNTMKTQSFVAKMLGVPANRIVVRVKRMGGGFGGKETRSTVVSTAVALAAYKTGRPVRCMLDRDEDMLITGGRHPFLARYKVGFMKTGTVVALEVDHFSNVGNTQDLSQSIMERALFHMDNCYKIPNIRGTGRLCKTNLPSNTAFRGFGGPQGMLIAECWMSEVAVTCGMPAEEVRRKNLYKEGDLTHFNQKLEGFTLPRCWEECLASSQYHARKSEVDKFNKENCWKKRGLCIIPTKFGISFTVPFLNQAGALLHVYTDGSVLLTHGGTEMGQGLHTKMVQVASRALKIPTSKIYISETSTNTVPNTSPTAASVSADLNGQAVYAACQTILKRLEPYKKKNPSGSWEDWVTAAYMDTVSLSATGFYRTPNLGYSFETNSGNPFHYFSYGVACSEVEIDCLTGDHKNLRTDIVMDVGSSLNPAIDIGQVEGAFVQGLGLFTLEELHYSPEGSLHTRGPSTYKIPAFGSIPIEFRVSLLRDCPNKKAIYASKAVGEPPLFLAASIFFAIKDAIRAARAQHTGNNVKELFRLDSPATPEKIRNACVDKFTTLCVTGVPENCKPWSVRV

`Oc1ncnc2[nH]ncc12` [Allopurinol, allopurinol] gave an inhibition at 0.05 µg/mL (0.05 μg/ml) of 34.1%, an inhibition at 1 µg/mL (1 μg/ml) of 44.9% and an inhibition at 5 µg/mL (5 μg/ml) of 59.4%. The inhibition at 10 µg/mL (10 μg/ml) was 74%, the inhibition at 15 µg/mL (15 μg/ml) was 81.2% and the inhibition at 20 µg/mL (20 μg/ml) was 87.2%. It also gave an inhibition at 25 µg/mL (25 μg/ml) of 93.3%.

From patent US20240100116A1, “EUCOMMIA ULMOIDES OLIV. LEAF EXTRACT CAPABLE OF PROTECTING HEALTH OF KIDNEY FUNCTION, AND PREPARATION AND DETECTION METHODS THEREOF” (Chenland Nutritionals Inc., priority 2023, published 2024)
